From article PMC10820468, “Novel Dihydrocoumarins Induced by Radiolysis as Potent Tyrosinase Inhibitors” (Molecules, 2024)

What was measured:
mushroom tyrosinase [1] = experiment: Mushroom tyrosinase inhibition assay (L-DOPA substrate, DOPA chrome at 470 nm); type: biochemical; details: 37 °C, 30 min, pH 6.8, triplicate
Description: The tyrosinase inhibition assay was achieved according to a previously described method. Both the enzyme (tyrosinase, EC 1.14.18.1) and substrate (L-3,4-dihydroxyphenylalanine) (L-DOPA) were purchased from Sigma-Aldrich. All test compounds were first dissolved in 5% dimethyl sulfoxide (DMSO) (80 μL), and the tyrosinase inhibitory activity was evaluated at various concentrations (5 to 200 μM). The reaction mixture consisted of 40 μL of tyrosinase solution (125 unit/mL in 67 mM phosphate buffer, pH 6.8), 40 μL of L-DOPA (25 mM in 67 mM phosphate buffer, pH 6.8), and 80 μL of the test sample. After incubation at 37 °C for 30 min, the amount of released DOPA chrome was measured at 470 nm using an ELISA reader (Infinite F200, Tecan Austria GmBH, Grodig, Austria). The tyrosinase inhibition (%) was calculated, and the half-maximal inhibitory concentration (IC50) was evaluated using linear regression analysis of the inhibitory effects under the assay conditions. […] All assays were carried out in triplicate. Kinetic parameters were determined using the Lineweaver-Burk plots methods at increasing concentration of substrates and inhibitor. The data was calculated using Sigma-plot (SPCC Inc., Chicago, IL, USA).

mushroom tyrosinase [2] = experiment: Inhibition kinetics of tyrosinase-mediated L-DOPA oxidation (Lineweaver-Burk plots); type: biochemical
Text: Tyrosinase is a metalloenzyme that plays a primary role in the production of melanin from tyrosine when the skin is exposed to UV rays. Tyrosinase-related protein-1 (TRP-1) and dopachrome tautomerase (TRP-2) result in the formation of melanin as eumelanin (which appears black and brown) and pheomelanin (which appears yellow and red). Tyrosinase is present in epidermal melanocytes as well as in the pigment epithelia of the retina, iris, and ciliary body of the eye, and is one of the chief enzymes responsible for skin pigmentation in mammals. Melanin production can be inhibited by suppressing tyrosinase activity, thereby preventing the induction of melasma, freckles, and senile […]. […] Radiocatalytic hydrogenated molecules 1–4 obtained in the present study were evaluated for their inhibitory capacities toward mushroom tyrosinase. […]
The tyrosinase inhibition assay was achieved according to a previously described method. […] All test compounds were first dissolved in 5% dimethyl sulfoxide (DMSO) (80 μL), and the tyrosinase inhibitory activity was evaluated at various concentrations (5 to 200 μM). […] After incubation at 37 °C for 30 min, the amount of released DOPA chrome was measured at 470 nm using an ELISA reader (Infinite F200, Tecan Austria GmBH, Grodig, Austria). […] The data was calculated using Sigma-plot (SPCC Inc., Chicago, IL, USA).

IC50 (mushroom tyrosinase [1]) | Inhibition Type (mushroom tyrosinase [2]) | Ki (mushroom tyrosinase [2]) | SMILES
19.8 ± 0.5 µM | Non-competitive | 16 µM | C[C@]1([C@@]2(C)c3ccc(O)cc3OC(=O)[C@H]2CO)c2ccc(O)cc2OC(=O)[C@H]1CO (relative stereo) [Compound 4, Radiocoumarone D]
49 ± 1.3 µM | – | – | C[C@]1(CO)c2ccc(O)cc2OC(=O)[C@H]1CO (relative stereo) [Compound 2, Radiocoumarone B]

More lines, now with the values behind:

SMILES | IC50 (mushroom tyrosinase [1]) | Inhibition Type (mushroom tyrosinase [2]) | Ki (mushroom tyrosinase [2])
O=C1Oc2cc(O)ccc2[C@@](CO)(CCO)[C@@H]1CO (relative stereo) [Compound 3, Radiocoumarone C] | 254.6 ± 2.1 µM | – | –
C[C@@]1(CO)CC(=O)Oc2cc(O)ccc21 (stereo in doubt) [Compound 1, Radiocoumarone A] | 143 ± 1.5 µM | – | –
Cc1cc(=O)oc2cc(O)ccc12 [4-MUF (5), 4-methylumbelliferone, reference compound] | > 500 µM | – | –
